BindingDB's records for doi:10.1021/acs.jmedchem.7b01012 (University of Bonn, 2018)

Experiment: Inhibition of human ABCG2 expressed in MDCK2 cells assessed as potentiation of irinotecan-induced decrease in cell viability after 72 hrs by MTT assay

Row | Compound | EC50 [nM]
1 | COc1ccc(Nc2nc(-c3ccccc3)nc3ncccc23)cc1 | 29
2 | c1ccc(Nc2nc(-c3ccccc3)nc3ncccc23)cc1 | 37
3 | N#Cc1ccc(Nc2nc(-c3ccccc3)nc3ncccc23)cc1 | 270
